# Test results published in US7655662B2, “(Indazol-5-yl)-pyrazines and (1,3-dihydro-indol-2-one)-pyrazines for treating glaucoma and controlling intraocular pressure” (Alcon Research, Ltd., priority 2005, dated 2010).
# Where a name gives a salt, the structure may show the parent alone.
# Biological target: T1, Human recombinant Rho kinase (ROKα/ROCK-II, (aa 11-552)) (Homo sapiens, UniProt O75116)
# T1 construct: Human recombinant Rho kinase (ROKα/ROCK-II, (aa 11-552), human active); purchased Upstate Biotechnology Co., Lake Placid, N.Y. 14-451
# Assay: Rho kinase II (ROCK II) IMAP fluorescence polarization inhibition assay
# Assay type: biochemical
# Settings: IMAP ROCK II kit; substrate 200 nM, ATP 10 μM; 60 min at 23° C.; read-out: Rho kinase II Binding Data IC50
# Experimental: The ability of certain compounds of Formula (I) to inhibit rho kinase is evaluated by means of in vitro assays. Human recombinant Rho kinase (ROKα/ROCK-II, (aa 11-552), human active, catalog #14-451, Upstate Biotechnology Co., Lake Placid, N.Y.), MgCl2/ATP cocktail, and enzyme substrate (Upstate) is used.
# Fluorescence polarization assays are performed using a Biomek 2000 Robotic Workstation (Beckman Instruments, Palo Alto, Calif.) in a 96-well plate format. The assays are performed utilizing the IMAP ROCK II kit (Molecular Devices, Sunnyvale, Calif.) as follows. Substrate and ATP concentrations used are 200 nM and 10 μM, respectively, while the enzyme concentration is 3.96×10^−3 units per well. The substrate, enzyme, and ATP dilutions are made with the reaction buffer provided by the vendor. Test compounds are diluted in 10:10 DMSO-ethanol (vol/vol). For the actual assays, the various components are added into black, clear bottom, 96-well plates (Costar, Corning, N.Y.) in a final volume of 20 μl per well. After the enzyme reaction (60 min at 23° C.), 60 μl of the binding solution (IMAP kit, provided by vendor) is added per well and incubated for an additional 30 minutes in the dark at 23° C. Fluorescence polarization of the reaction mixtures is then measured on the Analyst™ HT instrument (Molecular Devices, Sunnyvale, Calif.).
# The data generated are then analyzed using a non-linear, iterative, sigmoidal-fit computer program purchased from IDBS (Emeryville, Calif.) and as previously described (Sharif et al., J Pharmacol. Exp. Ther. 286:1094-1102, 1998; Sharif et al., J Pharmacol. Expt. Ther. 293:321-328, 2000; Sharif et al., J Ocular Pharmacol. Ther. 18:141-162, 2002a; Sharif et al., J Pharmac. Pharmacol. 54:539-547, 2002b) to generate the inhibition constants for the test compounds.
# T1 sequence (O75116 11-552): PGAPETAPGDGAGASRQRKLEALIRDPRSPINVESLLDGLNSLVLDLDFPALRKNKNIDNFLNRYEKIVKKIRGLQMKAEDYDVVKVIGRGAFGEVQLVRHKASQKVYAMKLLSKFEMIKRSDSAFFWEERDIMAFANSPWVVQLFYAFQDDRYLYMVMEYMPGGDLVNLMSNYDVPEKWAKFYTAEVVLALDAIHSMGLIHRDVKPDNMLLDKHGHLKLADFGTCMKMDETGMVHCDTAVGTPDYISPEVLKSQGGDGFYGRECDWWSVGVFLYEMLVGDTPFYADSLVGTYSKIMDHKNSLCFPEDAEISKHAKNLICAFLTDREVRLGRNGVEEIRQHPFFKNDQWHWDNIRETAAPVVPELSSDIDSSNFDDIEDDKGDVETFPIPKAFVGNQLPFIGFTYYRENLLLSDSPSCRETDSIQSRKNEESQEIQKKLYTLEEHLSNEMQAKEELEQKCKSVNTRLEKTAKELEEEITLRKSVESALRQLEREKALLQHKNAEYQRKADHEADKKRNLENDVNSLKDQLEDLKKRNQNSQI
row,IC50 [nM],Compound
1,190,"Cc1n[nH]c2ccc(-c3cncc(NC[C@@H](N)Cc4ccccc4)n3)cc12 [Example 1, (S)-N^1-[6-(3-Methyl-1H-indazole-5-yl)-pyrazin-2-yl]-3-phenyl-propane-1,2-diamine dihydrochloride]"
2,590,Cc1n[nH]c2ccc(-c3cncc(NCC(N)Cc4cc5ccccc5[nH]4)n3)cc12 (stereo not drawn) [Example 3]
3,57,"Cc1n[nH]c2ccc(-c3cncc(NC[C@@H](N)Cc4ccccc4)n3)cc12 (single isomer, unassigned) [Example 2]"
